In one assay the target is T1, hCA IX (Homo sapiens, UniProt Q16790).
T1 construct: made in house
The assay is described as follows: biochemical.

Another assay addresses T2, mtCA 03 (Mycobacterium tuberculosis, UniProt P96878).
T2 sequence (P96878 550-764): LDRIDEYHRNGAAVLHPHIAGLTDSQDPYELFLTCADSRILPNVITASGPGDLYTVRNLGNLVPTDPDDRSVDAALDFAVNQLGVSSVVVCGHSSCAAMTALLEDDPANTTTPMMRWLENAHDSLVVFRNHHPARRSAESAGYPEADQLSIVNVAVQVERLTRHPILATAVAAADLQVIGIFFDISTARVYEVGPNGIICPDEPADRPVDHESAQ
The assay can be described thus: biochemical.

A further assay deals with BpsCAβ (Burkholderia pseudomallei, UniProt Q63Y17). The note with it: pH 8.3.
The target in another assay is BpsCAγ (Burkholderia pseudomallei, UniProt Q63SQ4). The note with it: pH 8.3.
For a further assay, the system named is carbonic anhydrase (CA). Set-up: method as in Lankas & Peter, 1992. The settings on record: in vivo study, ref Lankas & Peter, 1992; cited from earlier work.
A further assay has as its target hCA II (Homo sapiens, UniProt P00918). The assay is described as follows: biochemical.
The next assay deals with hCA XII (Homo sapiens, UniProt O43570). The assay is described as follows: biochemical.
The target in a further assay is T3, SmCA (Schistosoma mansoni, UniProt A0A4Y5UX87, S271R).
T3 sequence (A0A4Y5UX87 21-298 S271R): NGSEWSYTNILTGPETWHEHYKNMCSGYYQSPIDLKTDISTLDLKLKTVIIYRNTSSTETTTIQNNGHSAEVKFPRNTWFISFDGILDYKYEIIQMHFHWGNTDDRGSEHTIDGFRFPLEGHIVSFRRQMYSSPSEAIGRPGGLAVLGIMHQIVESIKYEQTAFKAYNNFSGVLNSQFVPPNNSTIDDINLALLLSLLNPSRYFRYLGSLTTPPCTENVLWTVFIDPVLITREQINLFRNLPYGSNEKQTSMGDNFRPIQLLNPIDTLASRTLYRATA
The assay is described as follows: biochemical.

For another assay, the target named is VhCAα (Vibrio cholerae, UniProt Q9KMP6). The assay can be described thus: biochemical.
Another assay addresses T4, SazCA (Sulfurihydrogenibium azorense, UniProt C1DTU5).
T4 sequence (C1DTU5 19-254): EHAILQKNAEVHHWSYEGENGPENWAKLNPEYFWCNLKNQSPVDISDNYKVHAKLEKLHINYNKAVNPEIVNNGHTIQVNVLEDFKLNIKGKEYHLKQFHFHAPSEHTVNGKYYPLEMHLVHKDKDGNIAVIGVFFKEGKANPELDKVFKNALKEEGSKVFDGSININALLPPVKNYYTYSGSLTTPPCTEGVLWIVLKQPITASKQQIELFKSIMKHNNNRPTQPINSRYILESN
The assay can be described thus: biochemical.

The target of the next assay is VhCAβ (Vibrio cholerae, UniProt A0A086SLX8). The assay is described as follows: biochemical.
The next assay deals with mtCA 02 (Mycobacterium tuberculosis, UniProt P9WPJ9). The assay is described as follows: biochemical.
The next assay concerns the target T5, TweCA (Thalassiosira weissflogii, UniProt Q5U9J1).
T5 sequence (Q5U9J1 1-281): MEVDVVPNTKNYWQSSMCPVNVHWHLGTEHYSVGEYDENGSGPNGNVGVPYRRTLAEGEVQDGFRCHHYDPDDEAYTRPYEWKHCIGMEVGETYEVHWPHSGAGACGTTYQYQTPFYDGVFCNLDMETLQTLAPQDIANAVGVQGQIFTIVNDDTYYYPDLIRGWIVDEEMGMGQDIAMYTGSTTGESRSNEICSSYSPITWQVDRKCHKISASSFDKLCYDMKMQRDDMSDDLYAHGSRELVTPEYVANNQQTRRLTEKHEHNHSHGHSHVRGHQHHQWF
The assay can be described thus: biochemical.

In another assay the target is hCA I (Homo sapiens, UniProt P00915). The assay is described as follows: Stopped-flow CO2-hydration assay, hCA I.
hCA I, sequence (P00915 whole entry): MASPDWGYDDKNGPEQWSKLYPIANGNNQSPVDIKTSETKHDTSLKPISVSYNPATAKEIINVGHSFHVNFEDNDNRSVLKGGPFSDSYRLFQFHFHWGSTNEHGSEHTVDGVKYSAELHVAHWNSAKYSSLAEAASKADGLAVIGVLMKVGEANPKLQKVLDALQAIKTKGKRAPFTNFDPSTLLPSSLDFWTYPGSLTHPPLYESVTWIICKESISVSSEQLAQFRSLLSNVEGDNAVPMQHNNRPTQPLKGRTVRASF

mtCA 02, sequence (P9WPJ9 whole entry, looked up): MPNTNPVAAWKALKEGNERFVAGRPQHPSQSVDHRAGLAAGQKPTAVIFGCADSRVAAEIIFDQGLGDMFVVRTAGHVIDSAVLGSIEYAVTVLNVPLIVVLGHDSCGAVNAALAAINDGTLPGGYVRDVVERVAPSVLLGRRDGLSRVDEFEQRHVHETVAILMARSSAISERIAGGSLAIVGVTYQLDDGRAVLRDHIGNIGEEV
hCA XII, sequence (O43570 25-354): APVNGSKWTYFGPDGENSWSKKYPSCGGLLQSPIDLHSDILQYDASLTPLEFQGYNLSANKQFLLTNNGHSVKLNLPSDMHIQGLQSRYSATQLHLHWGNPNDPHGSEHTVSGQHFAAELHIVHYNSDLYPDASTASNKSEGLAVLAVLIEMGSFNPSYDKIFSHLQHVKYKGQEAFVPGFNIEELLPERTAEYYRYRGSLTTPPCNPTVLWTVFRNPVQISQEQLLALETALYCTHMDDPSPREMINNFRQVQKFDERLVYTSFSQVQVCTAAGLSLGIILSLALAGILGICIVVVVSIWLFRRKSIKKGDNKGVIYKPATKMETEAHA
VhCAβ, sequence (A0A086SLX8 entry or part of it): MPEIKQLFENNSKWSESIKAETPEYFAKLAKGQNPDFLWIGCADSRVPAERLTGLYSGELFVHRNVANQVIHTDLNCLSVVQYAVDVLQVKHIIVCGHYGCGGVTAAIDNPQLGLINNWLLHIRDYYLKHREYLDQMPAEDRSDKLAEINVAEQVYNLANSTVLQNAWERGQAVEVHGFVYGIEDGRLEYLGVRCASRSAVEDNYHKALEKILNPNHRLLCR
BpsCAβ, sequence (Q63Y17 1-256): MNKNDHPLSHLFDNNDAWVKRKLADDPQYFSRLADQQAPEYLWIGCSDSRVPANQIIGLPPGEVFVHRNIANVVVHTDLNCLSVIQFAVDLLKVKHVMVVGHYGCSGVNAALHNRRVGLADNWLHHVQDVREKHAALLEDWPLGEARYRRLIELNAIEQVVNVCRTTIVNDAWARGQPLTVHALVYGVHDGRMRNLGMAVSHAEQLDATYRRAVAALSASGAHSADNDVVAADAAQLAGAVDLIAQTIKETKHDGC
VhCAα, sequence (Q9KMP6 entry or part of it): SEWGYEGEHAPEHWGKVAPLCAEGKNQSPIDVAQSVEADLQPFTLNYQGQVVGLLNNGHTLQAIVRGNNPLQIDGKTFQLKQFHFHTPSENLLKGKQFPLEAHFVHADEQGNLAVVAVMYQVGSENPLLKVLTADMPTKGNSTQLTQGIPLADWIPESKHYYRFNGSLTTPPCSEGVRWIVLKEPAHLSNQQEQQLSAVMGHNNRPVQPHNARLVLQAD
BpsCAγ, sequence (Q63SQ4 1-174): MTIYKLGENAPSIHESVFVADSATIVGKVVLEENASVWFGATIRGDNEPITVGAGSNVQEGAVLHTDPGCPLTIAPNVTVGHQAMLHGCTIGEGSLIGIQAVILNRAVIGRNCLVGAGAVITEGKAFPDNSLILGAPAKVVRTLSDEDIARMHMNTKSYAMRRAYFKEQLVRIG

As a reminder, the Ki is the dissociation constant of the complex between target and ligand, obtained from inhibition or displacement. In the case of `Nc1cc(C(Cl)=C(Cl)Cl)c(S(N)(=O)=O)cc1S(N)(=O)=O` [Clorsulon, 4-Amino-6-(1,2,2-trichlorovinyl)benzene-1,3-disulfonamide], the Ki at hCA IX is 138 nM; at mtCA 03, 828 nM; on BpsCAβ it was 223 nM; at BpsCAγ, 2500 nM; on hCA II it was 59.1 nM; on hCA XII, 78 nM. Moreover, the Ki on SmCA is 225 nM; on VhCAα, 292 nM; on SazCA it was 7.7 nM; on VhCAβ, 906 nM; on mtCA 02, 2.9 nM; at TweCA, 95.8 nM. Also, the Ki at hCA I is 4520 nM. For the same molecule, in the assay with carbonic anhydrase (CA), the “carbonic anhydrase (CA) inhibitory activity in rats” value is given as “weak”.

The values are drawn from publication PMC8900822 (Acta Crystallographica. Section D, Structural Biology, 2022).
